Source: patent US5457124A, “Carboxylic acid Leukotriene B4 antagonists” (Hoffmann-La Roche Inc., priority 1993, dated 1995)
pKi: −log10 of the molar value.

What was measured:
[1] = molecular target: T1, LTB4 Receptor (Homo sapiens, UniProt Q15722); assay: LTB4 Receptor Binding Assay (inhibition of 3H-LTB4 binding, isolated human neutrophils); conditions: 0.5 nM 3H-LTB4, 45 minutes on ice, Cheng-Prusoff, read-out: Ki, human neutrophil cells (inhibition of 3H-LTB4 binding)
T1 construct: Isolated human neutrophils in Gey's salt solution; endogenous in cells; host or cells: isolated human neutrophils
T1 sequence (Q15722 whole entry): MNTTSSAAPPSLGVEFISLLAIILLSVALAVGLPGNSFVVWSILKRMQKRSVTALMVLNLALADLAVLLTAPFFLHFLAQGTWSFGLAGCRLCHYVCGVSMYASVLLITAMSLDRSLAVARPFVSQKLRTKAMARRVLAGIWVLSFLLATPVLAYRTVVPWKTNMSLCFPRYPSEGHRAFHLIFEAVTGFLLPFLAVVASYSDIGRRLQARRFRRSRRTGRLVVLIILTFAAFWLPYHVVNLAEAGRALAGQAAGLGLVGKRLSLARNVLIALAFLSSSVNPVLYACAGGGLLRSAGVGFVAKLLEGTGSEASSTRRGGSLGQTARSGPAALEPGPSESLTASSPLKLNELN
Description: LTB4 Receptor Binding Assay
Binding assays can be performed in microliter wells. Isolated human neutrophils in Gey's salt solution are incubated on ice for 45 minutes with 0.5 nM ^3 H-LTB4 in the presence or absence of test compounds. Assays are terminated by adding 12 ml of ice cold 50 mM Tris buffer (pH 7.4) followed by rapid filtration under vacuum through GF/C filters. Radioactivity is determined by scintillation counting. Non specific binding is defined as the binding not displaced by 100 fold excess of unlabelled LTB4. Specific binding is defined as the difference between total binding and non-specific binding. Non linear analysis of the binding data is performed using LIGAND (Munson and Rodbard, 1980). Ki (Inhibition Constant) values were determined using the Cheng-Prusoff relationship (Cheng and Prusoff, 1973).
When representative compounds of formulas A, B or C of the invention were tested, the results as set forth in Table I and expressed as inhibition of ^3 H-LTB4 binding were obtained.

[2] = test system: leukotriene B4; assay: Guinea Pig Bronchoconstriction, In Vivo (leukotriene B4 challenge); design: species or system guinea pig (Hartley strain); conditions: 0.1 mg/kg test compound dose p.o., 2 hr prior to leukotriene B4 (200 μg/kg i.v.); propranolol 0.1 mg/kg i.v.; male guinea pigs
Description: Guinea Pig Bronchoconstriction, In Vivo
Male guinea pigs (Hartley strain), weighing 300 to 500 g are anesthetized with urethane (2 g/kg) intraperitoneally and a polyethylene cannula is inserted into the jugular vein for drug administration. Tracheal pressure is recorded from a cannula inserted into the trachea and connected to a Gould P231D pressure transducer. After surgical preparation of the animals, a period of time is allowed for pulmonary functions to stabilize. Animals are then paralyzed with succinylcholine (1.2 mg/kg, i.v.) and mechanically respirated (Harvard rodent respirator) at 40 breaths/minute and 2.5 cc tidal volume. The test compound is administered p.o., 2 hr prior to leukotriene B4 administration. Propranolol (0.1 mg/kg) is administered intravenously 5 min prior to leukotriene B4 administration. Animals are then challenged with an intermediate constrictory dose of leukotriene B4 (200 μg/kg), delivered intravenously.
The change (cm H2 O) between pre and peak ventilatory pressure readings is averaged for 6 control and 6 drug treated animals. The percent inhibition is calculated from the formula:
((Control-Drug Treated)/Control)×100
When representative compounds of formulas A, B and C of the invention were utilized as the test compounds, the following results were obtained: […]

| pKi [1] | Compound | % inhibition (of leukotriene B4-induced bronchoconstriction) [2] [%] |
| --- | --- | --- |
| 9.00 | O=C(O)CCCOc1cccc(CCCCCCOc2ccc3c(c2CCCc2ccccc2)OCCC3=O)c1CCC(=O)O [2-(3-Carboxypropoxy)-6-[6-[[3,4-dihydro-4-oxo-8-(3-phenylpropyl)-2H-1-benzopyran-7-yl]oxy]hexyl]benzenepropanoic Acid] | 67 |
| 8.70 | O=C(O)CCCOc1cccc(CCCCCCOc2ccc3c(c2CCCc2ccccc2)CCCC3=O)c1CCC(=O)O [2-(3-Carboxypropoxy)-6-[6-[[5,6,7,8-tetrahydro-5-oxo-1-(3-phenylpropyl)-2-naphthalenyl]oxy]hexyl]benzenepropanoic Acid] | 78 |
| 9.00 | O=C(O)CCCOc1cccc(CCCCCCOc2ccc3c(c2C/C=C/c2ccccc2)CCCC3=O)c1CCC(=O)O [(E)-2-(3-Carboxypropoxy)-6-[6-[[5,6,7,8-tetrahydro-5-oxo-1-(3-phenyl-2-propenyl)-2-naphthalenyl]oxy]hexyl]benzenepropanoic Acid] | 64 |
